According to patent publication US9163007B2, “5-substituted indazoles as kinase inhibitors” (AbbVie Inc., priority 2007, dated 2015):

Tested on: HCT-116 cells
Test: AlamarBlue Cell Viability Assays
Format: cell-based
Conditions: Homo sapiens, treated 72 hours
Procedure: AlamarBlue Cell Viability Assays
HCT-116 cells (3,000/well; 96-well format) were treated for 72 hours with increasing concentrations of compounds (0.01-30 μM in half-log increments). The cells were then incubated in fresh media with 10% AlamarBlue reagent (Invitrogen #DAL1100). AlamarBlue reactions were incubated according to the manufacturer's instructions (approximately 4 hours) and then analyzed using an fmax fluorescence microplate reader (Molecular Devices) using excitation/emission wavelengths of 544/595 nm. Data were analyzed using SOFTmax PRO software provided by the manufacturer.

| EC50 | Compound |
| --- | --- |
| 13500 nM | COc1ccc(NC(=O)Nc2n[nH]c3ccc(-c4nnn(Cc5ccccc5)c4-c4ccccc4)cc23)cc1 [Example 200, N-[5-(1-benzyl-5-phenyl-1H-1,2,3-triazol-4-yl)-1H-indazol-3-yl]-N′-(4-methoxyphenyl)urea] |
| 37 nM | Nc1n[nH]c2ccc(-c3nnn(Cc4ccccc4)c3C3CCCCC3)cc12 [Example 402, 5-(1-benzyl-5-cyclohexyl-1H-1,2,3-triazol-4-yl)-1H-indazol-3-amine] |
| 19100 nM | CCS(=O)(=O)Nc1n[nH]c2ccc(-c3nnn(Cc4ccccc4)c3C3CC3)cc12 [Example 216, N-[5-(1-benzyl-5-cyclopropyl-1H-1,2,3-triazol-4-yl)-1H-indazol-3-yl]ethanesulfonamide] |

Molecular target: Cdc7/Dbf4 (Homo sapiens (Human), UniProt O00311)
Sequence (O00311 whole entry): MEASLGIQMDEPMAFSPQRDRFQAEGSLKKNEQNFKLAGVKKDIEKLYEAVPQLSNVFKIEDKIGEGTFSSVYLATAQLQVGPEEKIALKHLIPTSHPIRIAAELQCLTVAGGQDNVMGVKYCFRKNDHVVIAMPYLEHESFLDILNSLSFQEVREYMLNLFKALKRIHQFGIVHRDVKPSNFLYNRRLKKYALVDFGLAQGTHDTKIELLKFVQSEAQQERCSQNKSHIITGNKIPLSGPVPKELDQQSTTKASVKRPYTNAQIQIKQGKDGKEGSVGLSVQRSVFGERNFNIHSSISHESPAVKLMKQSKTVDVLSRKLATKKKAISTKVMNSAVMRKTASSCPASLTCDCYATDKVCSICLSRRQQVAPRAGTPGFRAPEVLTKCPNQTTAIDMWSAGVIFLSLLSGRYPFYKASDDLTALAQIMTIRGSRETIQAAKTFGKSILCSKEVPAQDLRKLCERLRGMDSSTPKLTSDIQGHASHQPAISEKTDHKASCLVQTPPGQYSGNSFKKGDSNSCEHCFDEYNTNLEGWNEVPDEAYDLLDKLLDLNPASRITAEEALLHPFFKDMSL
Sequence (Q9UBU7 whole entry partner): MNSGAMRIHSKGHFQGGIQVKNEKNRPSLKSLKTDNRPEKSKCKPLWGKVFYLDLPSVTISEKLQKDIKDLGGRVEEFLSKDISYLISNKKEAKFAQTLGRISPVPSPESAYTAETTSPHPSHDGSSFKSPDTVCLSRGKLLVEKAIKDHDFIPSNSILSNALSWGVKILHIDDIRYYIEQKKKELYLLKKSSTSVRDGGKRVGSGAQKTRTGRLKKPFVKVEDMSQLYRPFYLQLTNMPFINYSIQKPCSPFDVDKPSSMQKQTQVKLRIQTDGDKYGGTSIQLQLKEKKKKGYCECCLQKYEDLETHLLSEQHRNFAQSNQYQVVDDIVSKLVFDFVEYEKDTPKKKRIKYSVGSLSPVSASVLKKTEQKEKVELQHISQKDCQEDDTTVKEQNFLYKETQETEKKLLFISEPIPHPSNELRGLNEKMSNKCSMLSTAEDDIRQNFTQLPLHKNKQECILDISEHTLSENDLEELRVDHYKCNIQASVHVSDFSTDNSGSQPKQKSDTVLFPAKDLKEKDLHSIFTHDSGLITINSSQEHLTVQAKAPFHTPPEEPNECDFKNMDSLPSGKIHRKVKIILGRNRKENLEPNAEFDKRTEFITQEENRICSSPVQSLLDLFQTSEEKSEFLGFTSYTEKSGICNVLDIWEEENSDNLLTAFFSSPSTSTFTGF
Test: Cdc7 Inhibition Assay;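 also: reaction mixtures incubated 30 min on streptavidin-coated plates, then quantified by scintillation counting, with inhibition curves fitted by non-linear regression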
Format: biochemical
Conditions: 6 data point; read-out: Ki (μM) 6 data point
Procedure: The reactions were incubated for 30 minutes on streptavidin-coated plates, washed, and quantified using a TopCount scintillation plate reader (Packard). IC50 values are determined via non-linear regression fitting of the data.

| Ki | Compound |
| --- | --- |
| > 1.23 µM | CC(=O)N1CCN(C(=O)c2c(-c3ccc4[nH]ncc4c3)nnn2Cc2ccccc2)CC1 [Example 255, 5-{5-[(4-acetylpiperazin-1-yl)carbonyl]-1-benzyl-1H-1,2,3-triazol-4-yl}-1H-indazole] |
| 0.229 µM | O=C(c1cccc(Cl)c1)c1c(-c2ccc3[nH]ncc3c2)nnn1CC1CCOCC1 [Example 146, (3-chlorophenyl)[4-(1H-indazol-5-yl)-1-(tetrahydro-2H-pyran-4-ylmethyl)-1H-1,2,3-triazol-5-yl]methanone] |
| > 1.23 µM | O=C(c1c(-c2ccc3[nH]ncc3c2)nnn1Cc1ccccc1)N1CCOCC1 [Example 172, 5-[1-benzyl-5-(morpholin-4-ylcarbonyl)-1H-1,2,3-triazol-4-yl]-1H-indazole] |
| 0.046 µM | c1ccc(CNc2n[nH]c3ccc(-c4nnn(Cc5ccccc5)c4C4CC4)cc23)cc1 [Example 207, N-benzyl-5-(1-benzyl-5-cyclopropyl-1H-1,2,3-triazol-4-yl)-1H-indazol-3-amine] |
| 0.03 µM | Cc1ccccc1-c1c(-c2ccc3[nH]nc(N)c3c2)nnn1CC1CCOCC1 [Example 171, 5-[5-(2-methylphenyl)-1-(tetrahydro-2H-pyran-4-ylmethyl)-1H-1,2,3-triazol-4-yl]-1H-indazol-3-amine] |
| > 1.23 µM | O=C(c1c(-c2ccc3[nH]ncc3c2)nnn1Cc1ccccc1)N1CCCCC1 [Example 169, 5-[1-benzyl-5-(piperidin-1-ylcarbonyl)-1H-1,2,3-triazol-4-yl]-1H-indazole] |
| > 1.23 µM | O=C(Nc1ccccc1)c1c(-c2ccc3[nH]ncc3c2)nnn1Cc1ccccc1 [Example 243, 1-benzyl-4-(1H-indazol-5-yl)-N-phenyl-1H-1,2,3-triazole-5-carboxamide] |
| > 1.23 µM | CC1CN(C(=O)c2c(-c3ccc4[nH]ncc4c3)nnn2Cc2ccccc2)CC(C)O1 (stereo not shown) [Example 254, 5-{1-benzyl-5-[(2,6-dimethylmorpholin-4-yl)carbonyl]-1H-1,2,3-triazol-4-yl}-1H-indazole] |
| 1.23 µM | NC1CCN(C(=O)c2c(-c3ccc4[nH]ncc4c3)nnn2Cc2ccccc2)CC1 [Example 197, 1-{[1-benzyl-4-(1H-indazol-5-yl)-1H-1,2,3-triazol-5-yl]carbonyl}piperidin-4-amine] |

Same assay, conditions: 11 data point; read-out: Ki (μM) 11 data point

| Compound | Ki |
| --- | --- |
| O=S(=O)(Nc1n[nH]c2ccc(-c3nnn(Cc4ccccc4)c3C3CC3)cc12)c1ccccc1Cl [Example 218, N-[5-(1-benzyl-5-cyclopropyl-1H-1,2,3-triazol-4-yl)-1H-indazol-3-yl]-2-chlorobenzenesulfonamide] | > 1.23 µM |
| COc1ccc(NC(=O)Nc2n[nH]c3ccc(-c4nnn(Cc5ccccc5)c4-c4ccccc4)cc23)cc1 [Example 200, N-[5-(1-benzyl-5-phenyl-1H-1,2,3-triazol-4-yl)-1H-indazol-3-yl]-N′-(4-methoxyphenyl)urea] | 0.013 µM |
| CN(C)CCC(=O)Nc1n[nH]c2ccc(-c3cn(Cc4ccccc4)nn3)cc12 [Example 311, N^1-[5-(1-benzyl-1H-1,2,3-triazol-4-yl)-1H-indazol-3-yl]-N^3,N^3-dimethyl-beta-alaninamide] | > 1.23 µM |
| O=S(=O)(Nc1n[nH]c2ccc(-c3nnn(Cc4ccccc4)c3C3CC3)cc12)c1ccccc1 [Example 217, N-[5-(1-benzyl-5-cyclopropyl-1H-1,2,3-triazol-4-yl)-1H-indazol-3-yl]benzenesulfonamide] | 1 µM |
| Fc1ccc(Cn2cc(-c3ccc4[nH]ncc4c3)nn2)cc1 [Example 10, 5-[1-(4-fluorobenzyl)-1H-1,2,3-triazol-4-yl]-1H-indazole] | 0.0563 µM |
| O=S(=O)(Nc1n[nH]c2ccc(-c3nnn(Cc4ccccc4)c3-c3ccccc3)cc12)c1ccccc1 [Example 199, N-[5-(1-benzyl-5-phenyl-1H-1,2,3-triazol-4-yl)-1H-indazol-3-yl]benzenesulfonamide] | 0.34 µM |
| O=S(=O)(Nc1n[nH]c2ccc(-c3nnn(Cc4ccccc4)c3C3CC3)cc12)c1ccc(Cl)cc1 [Example 220, N-[5-(1-benzyl-5-cyclopropyl-1H-1,2,3-triazol-4-yl)-1H-indazol-3-yl]-4-chlorobenzenesulfonamide] | 0.98 µM |
| CCS(=O)(=O)Nc1n[nH]c2ccc(-c3nnn(Cc4ccccc4)c3C3CC3)cc12 [Example 216, N-[5-(1-benzyl-5-cyclopropyl-1H-1,2,3-triazol-4-yl)-1H-indazol-3-yl]ethanesulfonamide] | 0.12 µM |
| Nc1n[nH]c2ccc(-c3nnn(Cc4ccc(C(F)(F)F)cc4)c3-c3ccc(F)cc3)cc12 [Example 150, 5-{5-(4-fluorophenyl)-1-[4-(trifluoromethyl)benzyl]-1H-1,2,3-triazol-4-yl}-1H-indazol-3-amine] | 0.43 µM |

Second part, the compound after the results:

| Ki | Compound |
| --- | --- |
| 0.038 µM | Fc1cccc(CNc2n[nH]c3ccc(-c4cn(Cc5ccccc5)nn4)cc23)c1 [Example 414, 5-(1-benzyl-1H-1,2,3-triazol-4-yl)-N-(3-fluorobenzyl)-1H-indazol-3-amine] |
| 0.037 µM | Fc1ccc(CNc2n[nH]c3ccc(-c4cn(Cc5ccccc5)nn4)cc23)c(F)c1 [Example 416, 5-(1-benzyl-1H-1,2,3-triazol-4-yl)-N-(2,4-difluorobenzyl)-1H-indazol-3-amine] |
| 0.5 µM | O=C(CNC1CCCCC1)Nc1n[nH]c2ccc(-c3cn(Cc4ccccc4)nn3)cc12 [Example 316, N^1-[5-(1-benzyl-1H-1,2,3-triazol-4-yl)-1H-indazol-3-yl]-N^2-cyclohexylglycinamide] |
| 0.35 µM | c1ccc(Cn2cc(-c3ccc4[nH]nc(NCC5CCCCC5)c4c3)nn2)cc1 [Example 417, 5-(1-benzyl-1H-1,2,3-triazol-4-yl)-N-(cyclohexylmethyl)-1H-indazol-3-amine] |
| 0.14 µM | Clc1ccc(CNc2n[nH]c3ccc(-c4cn(Cc5ccccc5)nn4)cc23)cc1 [Example 412, 5-(1-benzyl-1H-1,2,3-triazol-4-yl)-N-(4-chlorobenzyl)-1H-indazol-3-amine] |
| 0.41 µM | CCS(=O)(=O)Nc1n[nH]c2ccc(-c3cn(Cc4ccccc4)nn3)cc12 [Example 320, N-[5-(1-benzyl-1H-1,2,3-triazol-4-yl)-1H-indazol-3-yl]ethanesulfonamide] |
| 0.037 µM | Nc1n[nH]c2ccc(-c3nnn(Cc4ccccc4)c3C3CCCCC3)cc12 [Example 402, 5-(1-benzyl-5-cyclohexyl-1H-1,2,3-triazol-4-yl)-1H-indazol-3-amine] |
| 0.18 µM | O=C1CCCN1c1n[nH]c2ccc(-c3cn(Cc4ccccc4)nn3)cc12 [Example 323, 1-[5-(1-benzyl-1H-1,2,3-triazol-4-yl)-1H-indazol-3-yl]pyrrolidin-2-one] |
| > 1.23 µM | O=C(CNC1CCC1)Nc1n[nH]c2ccc(-c3cn(Cc4ccccc4)nn3)cc12 [Example 318, N^1-[5-(1-benzyl-1H-1,2,3-triazol-4-yl)-1H-indazol-3-yl]-N^2-cyclobutylglycinamide] |
| 0.23 µM | CN1CCN(c2n[nH]c3ccc(-c4cn(Cc5ccccc5)nn4)cc23)CC1 [Example 400, 5-(1-benzyl-1H-1,2,3-triazol-4-yl)-3-(4-methylpiperazin-1-yl)-1H-indazole] |
| 0.22 µM | c1ccc(Cn2cc(-c3ccc4[nH]nc(NCCN5CCOCC5)c4c3)nn2)cc1 [Example 407, 5-(1-benzyl-1H-1,2,3-triazol-4-yl)-N-(2-morpholin-4-ylethyl)-1H-indazol-3-amine] |
| 0.052 µM | COc1ccc(CNc2n[nH]c3ccc(-c4cn(Cc5ccccc5)nn4)cc23)cc1 [Example 413, 5-(1-benzyl-1H-1,2,3-triazol-4-yl)-N-(4-methoxybenzyl)-1H-indazol-3-amine] |
| 0.63 µM | c1ccc(Cn2cc(-c3ccc4[nH]nc(N5CCOCC5)c4c3)nn2)cc1 [Example 399, 5-(1-benzyl-1H-1,2,3-triazol-4-yl)-3-morpholin-4-yl-1H-indazole] |
| 0.258 µM | c1ccc(Cn2cc(-c3ccc4[nH]nc(-c5nccs5)c4c3)nn2)cc1 [Example 404, 5-(1-benzyl-1H-1,2,3-triazol-4-yl)-3-(1,3-thiazol-2-yl)-1H-indazole] |
| 0.04 µM | CCCCNc1n[nH]c2ccc(-c3cn(Cc4ccccc4)nn3)cc12 [Example 410, 5-(1-benzyl-1H-1,2,3-triazol-4-yl)-N-butyl-1H-indazol-3-amine] |
| 0.065 µM | N#Cc1ccc(CNc2n[nH]c3ccc(-c4cn(Cc5ccccc5)nn4)cc23)cc1 [Example 415, 4-({[5-(1-benzyl-1H-1,2,3-triazol-4-yl)-1H-indazol-3-yl]amino}methyl)benzonitrile] |
| 0.57 µM | c1ccc(Cn2cc(-c3ccc4[nH]nc(NCC5CC5)c4c3)nn2)cc1 [Example 321, 5-(1-benzyl-1H-1,2,3-triazol-4-yl)-N-(cyclopropylmethyl)-1H-indazol-3-amine] |
| 0.489 µM | Cn1ccnc1-c1n[nH]c2ccc(-c3cn(Cc4ccccc4)nn3)cc12 [Example 398, 5-(1-benzyl-1H-1,2,3-triazol-4-yl)-3-(1-methyl-1H-imidazol-2-yl)-1H-indazole] |
| 0.18 µM | O=C1CN(CC(=O)Nc2n[nH]c3ccc(-c4cn(Cc5ccccc5)nn4)cc23)CCN1 [Example 314, N-[5-(1-benzyl-1H-1,2,3-triazol-4-yl)-1H-indazol-3-yl]-2-(3-oxopiperazin-1-yl)acetamide] |
| 0.192 µM | c1ccc(-n2cc(-c3ccc4[nH]ncc4c3)nn2)cc1 [Example 418, 5-(1-phenyl-1H-1,2,3-triazol-4-yl)-1H-indazole] |
| 0.12 µM | c1ccc(CNc2n[nH]c3ccc(-c4cn(Cc5ccccc5)nn4)cc23)cc1 [Example 411, N-benzyl-5-(1-benzyl-1H-1,2,3-triazol-4-yl)-1H-indazol-3-amine] |
| 0.681 µM | CN(C)C(=O)c1n[nH]c2ccc(-c3cn(Cc4ccccc4)nn3)cc12 [Example 396, 5-(1-benzyl-1H-1,2,3-triazol-4-yl)-N,N-dimethyl-1H-indazole-3-carboxamide] |
